From US10703764B2, “Benzopiperazine compositions as BET bromodomain inhibitors” (FORMA Therapeutics, Inc., priority 2013, dated 2020)

Assays:
BRD4 BD1 = molecular target: T1, BRD4 BD1 (Homo sapiens, UniProt O60885); assay: AlphaScreen binding assay, BRD4 Bromodomain 1
T1 construct: made in house
Outline: (§1)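 An AlphaScreen competition format was used with His-BRD4 BD1 or BD2 and biotin-H4 K5/8/12/16-acetyl peptide, each at matched final levels of 50 nM (BD1) or 100 nM (BD2). Incubation in HEPES/NaCl buffer with 0.1% BSA and 0.01% Triton X-100 ran ≥1 h before IC50 determination.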

BRD4 BD2 = molecular target: T2, BRD4 BD2 (Homo sapiens, UniProt O60885); assay: AlphaScreen binding assay, BRD4 Bromodomain 2
T2 construct: made in house
Outline: as §1

SMILES | IC50 (BRD4 BD1) [nM] | IC50 (BRD4 BD2) [nM]
CC(=O)N1c2ccc(-c3cc4ccccc4n3C)cc2N(C(=O)c2ccco2)C[C@@H]1C [Example I-839] | > 10000 | > 500
CC(=O)N1c2ccc(-c3cccc4cnn(C)c34)cc2N(C(=O)c2ccco2)C[C@@H]1C [Example I-842] | > 10000 | > 500
CC(=O)N1c2ccc(-c3cc(C(F)(F)F)nn3C)cc2N(C(=O)c2ccco2)C[C@@H]1C [Example I-851] | > 10000 | > 500
CC(=O)N1c2ccc(-c3cccc(C(N)=O)c3)cc2N(C(=O)c2ccco2)C[C@@H]1C [Example I-856] | 1000 to 10000 | < 50
CC(=O)N1c2ccc(-c3cccc4c3cnn4C)cc2N(C(=O)c2ccco2)C[C@@H]1C [Example I-858] | 1000 to 10000 | 50 to 500
CC(=O)N1c2ccc(-c3ccnc(C(F)(F)F)c3)cc2N(C(=O)c2ccco2)C[C@@H]1C [Example I-861] | 1000 to 10000 | 50 to 500
CC(=O)N1c2ccc(-c3ccc(S(=O)(=O)C(F)(F)F)cc3)cc2N(C(=O)c2ccco2)C[C@@H]1C [Example I-866] | 1000 to 10000 | 50 to 500
CC(=O)N1c2ccc(-c3cc(F)cc(F)c3)cc2N(C(=O)c2ccco2)C[C@@H]1C [Example I-869] | 1000 to 10000 | 50 to 500
CC(=O)N1c2ccc(-c3cccc4ccsc34)cc2N(C(=O)c2ccco2)C[C@@H]1C [Example I-873] | 1000 to 10000 | > 500
COc1ccc(C(=O)N2C[C@H](C)N(C(C)=O)c3ccc(-c4ccc(S(C)(=O)=O)cc4)cc32)cc1 [Example I-877] | 1000 to 10000 | 50 to 500
CC(=O)N1c2ccc(-c3ccc(S(C)(=O)=O)cc3)cc2N(C(=O)c2ccc(F)cc2)C[C@@H]1C [Example I-878] | > 10000 | 50 to 500
CC(=O)N1c2ccc(-c3ccc(S(C)(=O)=O)cc3)cc2N(C(=O)c2ccc(OC(F)(F)F)cc2)C[C@@H]1C [Example I-879] | > 10000 | > 500

More lines, now with the values ahead:

IC50 (BRD4 BD1) [nM] | IC50 (BRD4 BD2) [nM] | SMILES
1000 to 10000 | 50 to 500 | COc1ccc(-c2ccc3c(c2)N(C(=O)c2ccco2)C[C@H](C)N3C(C)=O)cn1 [Example I-833]
1000 to 10000 | 50 to 500 | COc1ncc(-c2ccc3c(c2)N(C(=O)c2ccco2)C[C@H](C)N3C(C)=O)cn1 [Example I-834]
1000 to 10000 | 50 to 500 | COc1cncc(-c2ccc3c(c2)N(C(=O)c2ccco2)C[C@H](C)N3C(C)=O)c1 [Example I-835]
1000 to 10000 | < 50 | CNC(=O)c1ccc(-c2ccc3c(c2)N(C(=O)c2ccco2)C[C@H](C)N3C(C)=O)cn1 [Example I-836]
1000 to 10000 | 50 to 500 | CC(=O)N1c2ccc(-c3ccc(C(F)(F)F)nc3)cc2N(C(=O)c2ccco2)C[C@@H]1C [Example I-837]
1000 to 10000 | 50 to 500 | CC(=O)N1c2ccc(-c3ccc4cn(C)nc4c3)cc2N(C(=O)c2ccco2)C[C@@H]1C [Example I-840]
1000 to 10000 | 50 to 500 | CC(=O)N1c2ccc(-c3cccc4[nH]ccc34)cc2N(C(=O)c2ccco2)CC1C (stereo not drawn) [Example I-846]
1000 to 10000 | 50 to 500 | CC(=O)N1c2ccc(-c3cccc(S(C)(=O)=O)c3)cc2N(C(=O)c2ccco2)C[C@@H]1C [Example I-847]
100 to 1000 | < 50 | CC(=O)N1c2ccc(-c3cccc(-n4cccn4)c3)cc2N(C(=O)c2ccco2)C[C@@H]1C [Example I-853]
1000 to 10000 | 50 to 500 | CC(=O)N1c2ccc(-c3cccc(-c4nnc(C)o4)c3)cc2N(C(=O)c2ccco2)C[C@@H]1C [Example I-854]
1000 to 10000 | < 50 | CC(=O)N1c2ccc(-c3cccc(-c4ccco4)c3)cc2N(C(=O)c2ccco2)C[C@@H]1C [Example I-855]
100 to 1000 | 50 to 500 | CC(=O)N1c2ccc(-c3cccc(N(C)C)c3)cc2N(C(=O)c2ccco2)C[C@@H]1C [Example I-870]
